Data as given in ChEMBL document CHEMBL1148155, “Botryllamides E-H, four new tyrosine derivatives from the ascidian Botrylloides tyreum” (J Nat Prod, 2004).

Each molecule was assayed on HCT-116 (assay: Cytotoxicity against human HCT116 cells after 72 hrs by MTS/PMS assay). Conditions: HCT-116, 72 h.
Type: functional, cell-based
`CO/C(=C\c1ccc(O)cc1)C(=O)N/C=C/c1cc(Br)c(OC)c(Br)c1` [BOTRYLLAMIDE A] was tested, and the IC50 was 33 µM. `CO/C(=C\c1ccc(O)cc1)C(=O)N/C=C/c1ccc(OC)cc1` [BOTRYLLAMIDE E] was tested, and the IC50 was 30 µM. For `CO/C(=C\c1ccc(O)cc1)C(=O)N/C=C/c1ccc(OC)c(Br)c1` [BOTRYLLAMIDE C], the IC50 was 28 µM. Molecule `CO/C(=C\c1ccc(O)cc1)C(=O)N/C=C/c1cc(Br)c(O)c(Br)c1` [BOTRYLLAMIDE G] has an IC50 of 110 µM. `CO/C(=C\c1ccc(O)cc1)C(=O)N/C=C/c1ccc(O)cc1` [BOTRYLLAMIDE F] gave an IC50 of 85 µM.
